The values below come from the supplement of paper PMC11368000.

A value given as a limit tells only on which side of the number the result lay.

For one assay, the system named is 1516 (donor line of iPSC-derived cardiomyocytes). The assay can be described thus: POD (EC10) for decrease in total cell number (cytotoxicity) vs vehicle; higher = less potent (higher point of departure). The note with it: exposure time: 90 min. The procedure: (§1)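 Human iPSC-derived cardiomyocytes from 16 donors were exposed for 90 min at 37 °C to each PFAS at 0.1, 1, 10 and 100 µM in 0.5% DMSO, 384-well plates. Kinetic Ca2+ flux (FLIPR) and Hoechst nuclei counts were normalised to vehicle wells and fitted with a hierarchical Bayesian Hill model to give donor-specific PODs: EC05 for beat-rate increase or decrease and for decay-to-rise ratio increase (QT proxy), EC95 for peak-frequency loss (asystole), EC10 for total cell number loss. 0.03 µM is the lower bound.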
`NC(=O)C(F)(F)C(F)(F)C(F)(F)C(F)F` had a POD vs vehicle above 100 µM.
The same measure, in the same setting: the same measure for `OCC(O)CC(F)(F)C(F)(F)C(F)(F)C(F)(F)C(F)(F)C(F)(F)C(F)(F)C(F)(F)F` (stereo unspecified) [1-(Perfluorofluorooctyl)propane-2,3-diol]: above 100 µM; for `CC(O)C(F)(F)C(F)(F)F` (stereo unspecified) [1-Pentafluoroethylethanol]: above 100 µM.
With `O=C(O)C(F)(F)C(F)(F)C(F)F` [2,2,3,3,4,4-Hexafluorobutanoic_acid], the POD vs vehicle is above 100 µM.
The same measure, in the same setting: then `NC(O)(C(F)(F)F)C(F)(F)F` [2-Aminohexafluoropropan-2-ol], with above 100 µM.
Compound `O=C(O)CCC(F)(F)C(F)(F)C(F)(F)C(F)(F)C(F)(F)F` [2H,2H,3H,3H-Perfluorooctanoic_acid] came in with a POD vs vehicle above 100 µM.
The same measure, in the same setting: then `O=C(O)C=C(C(F)(F)F)C(F)(F)F` [3,3-Bis(trifluoromethyl)-2-propenoic_acid], with above 100 µM.
As to `O=C(O)C=CC(F)(C(F)(F)F)C(F)(F)F` [3-(Perfluoroisopropyl)-2-propenoic_acid], the POD vs vehicle is above 100 µM.
Same read-out and setting: the same measure for `O=C(O)CCC(F)(F)C(F)(F)C(F)(F)F` [3:3 Fluorotelomer carboxylic acid]: above 100 µM.
Same read-out and setting: then `O=C(CC(=O)C(F)(F)C(F)(F)F)C(F)(F)F` [3H,3H-Perfluoro-2,4-hexanedione], with 74.4 µM.
Regarding `O=S(=O)(O)CCC(F)(F)C(F)(F)C(F)(F)C(F)(F)F` [4:2 Fluorotelomer sulfonic acid], the POD vs vehicle is above 100 µM.
`OCC(F)(F)C(F)(F)C(F)(F)F` [Heptafluorobutanol] showed a POD vs vehicle above 100 µM.
The same measure, in the same setting: the same measure for `OCC(F)(F)C(F)(F)C(F)(F)CO` [Hexafluoroamylene_glycol]: above 100 µM.
The same measure, in the same setting: the same measure for `NC(=O)C(F)(F)C(F)(F)C(F)(F)C(F)(F)F` [Nonafluoropentanamide]: above 100 µM; for `O=C(O)C(F)(F)OC(F)(F)C(F)(F)OC(F)(F)F` [Perfluoro-3,6-dioxaheptanoic_acid]: above 100 µM; for `O=C(O)C(F)(F)OC(F)(F)C(F)(F)OC(F)(F)C(=O)O` [Perfluoro-3,6-dioxaoctane-1,8-dioic_acid]: above 100 µM.
Still for that read-out and setting: the same measure for `O=C(O)C(F)(F)C(F)(F)C(F)(F)OC(F)(C(F)(F)F)C(F)(F)F` [Perfluoro-4-isopropoxybutanoic_acid]: above 100 µM; for `O=S(=O)(O)C(F)(F)C(F)(F)C(F)(F)C(F)(F)F` [Perfluorobutanesulfonic_acid]: above 100 µM; for `O=C(O)C(F)(F)C(F)(F)C(F)(F)C(F)(F)C(F)(F)C(F)(F)C(F)(F)C(F)(F)F` [Perfluorononanoic_acid]: above 100 µM.
In turn, `O=S(=O)([O-])C(F)(F)C(F)(F)C(F)(F)C(F)(F)F.[K+]` [Potassium_perfluorobutanesulfonate] showed a POD vs vehicle above 100 µM.

The subject of a further assay is 1309 (donor line of iPSC-derived cardiomyocytes). The description is as above. The note with it: exposure time: 90 min. The procedure: as §1
As to `NC(=O)C(F)(F)C(F)(F)C(F)(F)C(F)F`, the POD vs vehicle was above 100 µM.
Same read-out and setting: the same measure for `OCC(O)CC(F)(F)C(F)(F)C(F)(F)C(F)(F)C(F)(F)C(F)(F)C(F)(F)C(F)(F)F` (stereo unspecified) [1-(Perfluorofluorooctyl)propane-2,3-diol]: above 100 µM; for `CC(O)C(F)(F)C(F)(F)F` (stereo unspecified) [1-Pentafluoroethylethanol]: above 100 µM; for `O=C(O)C(F)(F)C(F)(F)C(F)F` [2,2,3,3,4,4-Hexafluorobutanoic_acid]: above 100 µM.
`NC(O)(C(F)(F)F)C(F)(F)F` [2-Aminohexafluoropropan-2-ol] had a POD vs vehicle above 100 µM.
Still for that read-out and setting: then `O=C(O)CCC(F)(F)C(F)(F)C(F)(F)C(F)(F)C(F)(F)F` [2H,2H,3H,3H-Perfluorooctanoic_acid], with above 100 µM.
Same read-out and setting: then `O=C(O)C=C(C(F)(F)F)C(F)(F)F` [3,3-Bis(trifluoromethyl)-2-propenoic_acid], with above 100 µM; and `O=C(O)C=CC(F)(C(F)(F)F)C(F)(F)F` [3-(Perfluoroisopropyl)-2-propenoic_acid], with above 100 µM; and `O=C(O)CCC(F)(F)C(F)(F)C(F)(F)F` [3:3 Fluorotelomer carboxylic acid], with above 100 µM.
On the same count and under the same terms, the same measure for `O=C(CC(=O)C(F)(F)C(F)(F)F)C(F)(F)F` [3H,3H-Perfluoro-2,4-hexanedione]: above 100 µM; for `O=S(=O)(O)CCC(F)(F)C(F)(F)C(F)(F)C(F)(F)F` [4:2 Fluorotelomer sulfonic acid]: above 100 µM.
As for `OCC(F)(F)C(F)(F)C(F)(F)F` [Heptafluorobutanol], the POD vs vehicle is above 100 µM.
Still for that read-out and setting: the same measure for `OCC(F)(F)C(F)(F)C(F)(F)CO` [Hexafluoroamylene_glycol]: above 100 µM.
Still for that read-out and setting: the same measure for `NC(=O)C(F)(F)C(F)(F)C(F)(F)C(F)(F)F` [Nonafluoropentanamide]: above 100 µM; for `O=C(O)C(F)(F)OC(F)(F)C(F)(F)OC(F)(F)F` [Perfluoro-3,6-dioxaheptanoic_acid]: above 100 µM; for `O=C(O)C(F)(F)OC(F)(F)C(F)(F)OC(F)(F)C(=O)O` [Perfluoro-3,6-dioxaoctane-1,8-dioic_acid]: above 100 µM.
Same read-out and setting: the same measure for `O=C(O)C(F)(F)C(F)(F)C(F)(F)OC(F)(C(F)(F)F)C(F)(F)F` [Perfluoro-4-isopropoxybutanoic_acid]: above 100 µM.
With `O=S(=O)(O)C(F)(F)C(F)(F)C(F)(F)C(F)(F)F` [Perfluorobutanesulfonic_acid], the POD vs vehicle is above 100 µM.
The same measure, in the same setting: then `O=C(O)C(F)(F)C(F)(F)C(F)(F)C(F)(F)C(F)(F)C(F)(F)C(F)(F)C(F)(F)F` [Perfluorononanoic_acid], with above 100 µM; and `O=S(=O)([O-])C(F)(F)C(F)(F)C(F)(F)C(F)(F)F.[K+]` [Potassium_perfluorobutanesulfonate], with above 100 µM.

The subject of another assay is 11235 (donor line of iPSC-derived cardiomyocytes). The assay is described as above. The note with it: exposure time: 90 min. The procedure:
as §1
As for `NC(=O)C(F)(F)C(F)(F)C(F)(F)C(F)F`, the POD vs vehicle was above 100 µM.
Compound `OCC(O)CC(F)(F)C(F)(F)C(F)(F)C(F)(F)C(F)(F)C(F)(F)C(F)(F)C(F)(F)F` (stereo unspecified) [1-(Perfluorofluorooctyl)propane-2,3-diol] came in with a POD vs vehicle above 100 µM.
The same measure, in the same setting: the same measure for `CC(O)C(F)(F)C(F)(F)F` (stereo unspecified) [1-Pentafluoroethylethanol]: above 100 µM.
On the same count and under the same terms, the same measure for `O=C(O)C(F)(F)C(F)(F)C(F)F` [2,2,3,3,4,4-Hexafluorobutanoic_acid]: above 100 µM.
On the same count and under the same terms, then `NC(O)(C(F)(F)F)C(F)(F)F` [2-Aminohexafluoropropan-2-ol], with above 100 µM; and `O=C(O)CCC(F)(F)C(F)(F)C(F)(F)C(F)(F)C(F)(F)F` [2H,2H,3H,3H-Perfluorooctanoic_acid], with above 100 µM.
